# Source: patent US12109197B2, “Combinations of β-lactam compounds and probenecid and uses thereof” (Iterum Therapeutics International Limited, priority 2018, dated 2024)
# Several values for one entry are separate records, joined by “and”; a condition that tells them apart may be missing. Identical values can stand only once. Like-named read-outs stand apart in the source and are kept apart here.
# Legend:
# [1] = format: in vivo, human; conditions: for TAMIC0.5 / TAMIC1.0 / Tmax: median
# Excerpt: The pharmacokinetics of Compound III-2b wer studies in a randomized, subject-blinded, investigator- and sponsor-open, placebo-controlled, multiple-dose study, run in parallel cohorts. There were 7 cohorts of approximately 10 subjects each (4:1 active:placebo).
# [2] = for Cmax / TAMIC0.5 / TAMIC1.0 / Tmax / AUCtau / AUCinf / AUClast / t1/2: plasma; for Tmax: median (minimum-maximum); for AUCtau: time 0 to 12 hours
# Description: Subjects were to be dosed twice a day (every 12 hours) for 6 days and on Day 7 they were to be dosed once. All treatment groups could be run in parallel or sequentially. Subjects were allocated based on the randomization list. Randomization numbers were assigned sequentially as subjects entered into groups on the basis of their order of entry into the study. Subjects who withdrew for reasons unrelated to safety may have been replaced. Blood samples were obtained at prespecified intervals in order to characterize pharmacokinetics.
# [3] = format: in vivo, human; conditions: for Tlast / Tmax: median; for TAMIC1: minimum concentration 0.5 μg/mL; for TAMIC2: minimum concentration 1.0 μg/mL
# Description: A Phase 1, randomized, investigator-blind, subject-blind, sponsor-open, placebo-controlled, single and multiple dose study of Compound II-2b was further conducted. There were 6 planned cohorts of subjects. Each cohort was planned to enroll 12 subjects, for a total of 72 planned subjects. Subjects in the multidose cohort were dosed for 10 days; new subjects were recruited for each cohort. Subjects in these cohorts, on Days 1 through 9, were dosed BTD (12 hours apart) at approximately 0800 and 2000 hours. On Day 10, subjects were to be dosed only once at approximately 0800 hours.
# [4] = Cohort 4: 0.5 g BID, fasted, Day 7
# [5] = 2000 mg BID, Study Day 1, plasma
# [6] = 2000 mg BID, Study Day 10, plasma
smiles,measurement,setting,value
"CCC(CC)C(=O)OCOC(=O)C1=C(S[C@H]2CC[S@@+]([O-])C2)S[C@@H]2[C@@H]([C@@H](C)O)C(=O)N12 [Compound III-2b, Sulopenem Etzadroxil]",Rac,"[1]; Cohort 4: 0.5 g BID, fasted, Day 7, accumulation ratio",0.873 (29)
same,TAMIC0.5,[1]; [4],2.38 h
same,TAMIC1.0,[1]; [4],0.803 h
same,Tmax,[1]; [4],1.50 h
same,AUCinf,"[1]; Cohort 7: 1 g TID, fed, Day 1",8290 (6) ng · h/mL
same,AUClast,"[1]; Cohort 7: 1 g TID, fed, Day 1",7670 (13) ng · h/mL
same,Cmax,"[1]; Cohort 7: 1 g TID, fed, Day 1",3320 (36) ng/mL
same,t½,"[1]; Cohort 7: 1 g TID, fed, Day 1",1.26 (40) h
same,TAMIC0.5,"[1]; Cohort 7: 1 g TID, fed, Day 1",4.90 h
same,TAMIC1.0,"[1]; Cohort 7: 1 g TID, fed, Day 1",3.32 h
same,Tmax,"[1]; Cohort 7: 1 g TID, fed, Day 1",1.75 h
same,AUCinf,"[1]; Cohort 7: 1 g TID, fed, Day 7",6750 (11) ng · h/mL
same,AUClast,"[1]; Cohort 7: 1 g TID, fed, Day 7",6230 (16) ng · h/mL
same,Cmax,"[1]; Cohort 7: 1 g TID, fed, Day 7",2090 (28) ng/mL
same,t½,"[1]; Cohort 7: 1 g TID, fed, Day 7",0.790 (2) h
same,Rac,"[1]; Cohort 7: 1 g TID, fed, Day 7, accumulation ratio",0.827 (21)
same,TAMIC0.5,"[1]; Cohort 7: 1 g TID, fed, Day 7",4.62 h
same,TAMIC1.0,"[1]; Cohort 7: 1 g TID, fed, Day 7",3.22 h
same,Tmax,"[1]; Cohort 7: 1 g TID, fed, Day 7",4.00 h
same,Rac,[1]; in vivo,1.10 (24)
same,"AUCtau, GM","[2]; Day 7, With Probenecid",5325.20 ng·h/mL
same,"Cmax, GM","[2]; Day 7, With Probenecid",1532.10 ng/mL
same,"AUCtau, GM","[2]; Day 7, Without Probenecid",3084.36 ng·h/mL
same,"Cmax, GM","[2]; Day 7, Without Probenecid",1233.18 ng/mL
same,AUC of sulopenem on Day 7 compared with Day 1,[2]; administered alone through the oral route,lower than that on Day 1
same,AUC of sulopenem on Day 7 compared with Day 1,[2]; co-administered with probenecid,increased on Day 7 beyond that seen on Day 1
same,Cmax,"[2]; fasted, Day 1",1699.1 (31.64) ng/mL
same,TAMIC0.5,"[2]; fasted, Day 1",2.6348 (14.85) h
same,TAMIC1.0,"[2]; fasted, Day 1",1.0758 (94.61) h
same,Tmax,"[2]; fasted, Day 1",1.0000 (0.4830-2.017) h
same,AUCtau,"[2]; fasted, Day 1",3623.8 (19.19) hr*ng/mL and 3623.8 hr*ng/mL
same,AUCinf,"[2]; fasted, Day 7",2627.8 (18.89) hr*ng/mL
same,AUClast,"[2]; fasted, Day 7",2607.4 (19.10) hr*ng/mL
same,Cmax,"[2]; fasted, Day 7",1289.4 (39.17) ng/mL
same,TAMIC0.5,"[2]; fasted, Day 7",2.1088 (16.74) h
same,TAMIC1.0,"[2]; fasted, Day 7",0.732 (62.70) h
same,t1/2,"[2]; fasted, Day 7",0.9376 (15.34) h
same,Tmax,"[2]; fasted, Day 7",0.9915 (0.5000-1.033) h
same,AUCtau,"[2]; fasted, Day 7",2626.3 (18.89) hr*ng/mL and 2626.3 hr*ng/mL
same,Cmax,"[2]; fed, Day 1",1730.9 (46.66) ng/mL
same,TAMIC0.5,"[2]; fed, Day 1",3.0103 (31.13) h
same,TAMIC1.0,"[2]; fed, Day 1",2.0882 (25.12) h
same,Tmax,"[2]; fed, Day 1",1.000 (1.5000-2.983) h
same,AUCtau,"[2]; fed, Day 1",4413.7 (27.00) hr*ng/mL
same,AUCinf,"[2]; fed, Day 7",3712.7 (24.27) hr*ng/mL
same,AUClast,"[2]; fed, Day 7",3537 (25.01) hr*ng/mL
same,Cmax,"[2]; fed, Day 7",1179.4 (25.94) ng/mL
same,TAMIC0.5,"[2]; fed, Day 7",2.8507 (31.48) h
same,TAMIC1.0,"[2]; fed, Day 7",1.3191 (62.54) h
same,t1/2,"[2]; fed, Day 7",0.9114 (26.68) h
same,Tmax,"[2]; fed, Day 7",1.483 (2.0000-4.000) h
same,AUCtau,"[2]; fed, Day 7",3706.4 (24.21) hr*ng/mL
same,AUCinf,[3]; [5],18100 ng·h/mL
same,AUCtau,[3]; [5],17500 ng·h/mL
same,Cmax,[3]; [5],6090 ng/mL
same,t1/2,[3]; [5],1.66 h
same,Tlast,[3]; [5],8.00 h
same,Tmax,[3]; [5],1.00 h
same,TAMIC1,[3]; [5],6.93
same,TAMIC2,[3]; [5],5.57
same,Ae %,"[3]; 2000 mg BID, Study Day 6, urine, percent of sulopenem dose excreted",17.3 (26) %
same,Ae24,"[3]; 2000 mg BID, Study Day 6, urine, sulopenem excreted unchanged over 24 hours",253000 (26) ug
same,Rac,"[3]; 2000 mg BID, Study Day 10, accumulation ratio",0.685
same,AUCtau,[3]; [6],12200 ng·h/mL
same,Cmax,[3]; [6],5480 ng/mL
same,Ctrough,[3]; [6],0.00 ng/mL
same,t1/2,[3]; [6],1.27 h
same,Tlast,[3]; [6],8.00 h
same,Tmax,[3]; [6],1.00 h
same,TAMIC1,[3]; [6],4.70
same,TAMIC2,[3]; [6],3.61
same,AUCtau,"[3]; 2000 mg, Day 1",17500 ng·h/mL
same,AUCtau,"[3]; 2000 mg, Day 10",12200 ng·h/mL
